Structures can show the parent of a compound that is named as a salt. Where two headings read alike, the source gives them in different places.
Experiments:
[1] = biological target: T1, 14-3-3ζ:BAD-112-136F interactions (Homo sapiens, UniProt P63104); experiment: BRET sensor screen for disruption of 14-3-3ζ-Rluc8:BAD-112-136F-mCitrine in living NIH-3T3 cells; type: cell-based, murine; set-up: inhibition: dose or concentration left out as unconfirmed; BRET reduction on NIH-3T3: unit not given here; conditions: for inhibition / inhibition at 20 µM: NIH3T3, 3 h, read-out: BRET reduction on NIH-3T3
T1 construct: expressed in transfected cells; host or cells: NIH-3T3 fibroblasts, bi-directional pBI-CMV1 plasmid
T1 sequence (P63104 1-245): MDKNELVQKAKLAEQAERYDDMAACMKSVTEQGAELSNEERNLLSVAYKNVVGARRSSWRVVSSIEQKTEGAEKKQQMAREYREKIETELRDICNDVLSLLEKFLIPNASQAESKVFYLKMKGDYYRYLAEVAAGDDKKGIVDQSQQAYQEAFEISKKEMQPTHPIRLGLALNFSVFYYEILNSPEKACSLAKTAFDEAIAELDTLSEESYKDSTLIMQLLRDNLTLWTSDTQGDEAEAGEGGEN
Summary of the method: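 NIH-3T3 cells were transfected with the BRET sensor two days beforehand, then replated on poly-L-ornithine-coated plates and grown 24 h at 37 °C. Medium was then replaced with Krebs buffer (pH 7.4). Z′-score was calculated to judge HTS robustness.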

[2] = tested on: HT-29 cells; experiment: Hoechst/propidium iodide cell death assay in HT-29; type: cell-based, human; conditions: for cytotoxicity at 20 µM: Homo sapiens; for %Cell death HT-29: time not given
From the text: (§1) A high-content imaging system (PerkinElmer; Operetta CLS), was used to quantify cell death and apoptosis by calculating the number of propidium iodide-positive cells relative to Hoechst-positive cells, and the number of Annexin V-positive cells relative to Hoechst-positive cells, respectively.

[3] = tested on: Caco-2 cells; type: cell-based; conditions: for Percentage of cell death % 24h CACO-2: 20 µM; for Percentage of cell death % 48h, Caco-2: 20 μM
From the text: as §1

[4] = tested on: NIH-3T3 cells; experiment: Hoechst/propidium iodide cell death assay in NIH-3T3; type: cell-based; conditions: for Percentage of cell death % 24h NIH3t3 / cytotoxicity at 20 µM: 20 µM, 24 h; for cytotoxicity at 20 µM: Mus musculus, NIH3T3, 24 h, read-out: Percentage of cell death % 24h NIH3t3
From the text: as §1

[5] = biological target: T2, 14-3-3ζ (Homo sapiens, UniProt P63104); experiment: Isothermal titration calorimetry (ITC) with purified 14-3-3ζ; type: binding; conditions: 750-1,000 μM ligand, 70 μM protein, 1-4% DMSO
T2 construct: made in house; host or cells: Escherichia coli BL21 LOBSTR-RIL
T2 sequence (P63104 1-245): T1 sequence (P63104 1-245)
Protocol: application to isothermal titration calorimetry (ITC) studies.
ITC experiments were performed, but the solubility incompatibility gave unclear data, with a […]
All ITC experiments were conducted at 750-1,000 μM of the ligand (in the syringe: titrant), with 70 μM of protein in the cell: titrand); each injection introduced approximately 4 nmol of ligand. All experiments were conducted at 1 -4% DMSO based on drug’s solubility. […]

[6] = biological target: T3, His-14-3-3ζ (Homo sapiens, UniProt P63104); experiment: Surface plasmon resonance (SPR) on immobilized His-14-3-3ζ; type: binding
T3 construct: made in house; host or cells: Escherichia coli BL21 LOBSTR-RIL
T3 sequence (P63104 1-245): T1 sequence (P63104 1-245)
Protocol: The published protocol of Higuchi & Ottmann as followed with modifications to express 14-3-3ζ [44]. Escherichia coli BL21 LOBSTR-RIL cells were transformed with a plasmid encoding His-14-3-3ζ. The transformed cells were grown in TB medium containing appropriate antibiotic at 37 °C with shaking at 200 rpm until the culture reached an optical density of 0.6–0.8 at 600 nm (OD600). Protein expression was induced by the addition of isopropyl β-D-1-thiogalactopyranoside to a final concentration of 0.4 mM. Subsequently, the temperature was decreased to 16 °C and the culture incubated for another 16 h. Cells were harvested by centrifugation at 7000 × g for 20 min at 21 °C. The supernatant was discarded, and the cell pellet containing 14-3-3ζ was mixed and resuspended in lysis buffer (50 mM Tris, pH 7.80), 500 mM NaCl, 5 mM imidazole, 5% glycerol, 1 mM PMSF & 1 mM Benzamidine. Cells were lysed by sonication on ice using a probe sonicator (20 cycles of 10 s on, 20 s off, amplitude 70%). The lysate was centrifuged at 30,000 × g for 30 min at 4 °C to remove cell debris. The supernatant was collected for further purification. The 14-3-3ζ was isolated from the lysate by affinity chromatography (Ni-NTA beads, Qiagen). For further purification, the eluant was subjected to size exclusion chromatography using a Superdex 75 gel filtration column (HiLoad 16/600, GE Healthcare), pre-equilibrated with SEC buffer (20 mM Tris, pH 7.5, 150 mM NaCl, 1 mM TCEP). The protein solution was concentrated by ultrafiltration, flash frozen, and stored at −80 °C.
The general protocol for evaluating 14-3-3ζ was adapted from Hartman et al. and modified for our instrument and sensors. The SPR experiments were performed using a Open surface plasmon resonance instrument (OpenSPR^TM, Nicoya, Kitchener-Waterloo, Canada), and high sensitivity-nitrilotriacetic acid (HS-NTA) sensors. The sensor chip surface was first activated with 40 mM of NiCl2 at a flow rate of 20 μL/min using 20 mM HEPES pH 7.8, 150 mM NaCl and 1% DMSO as the running buffer. All running buffers were filtered and degassed prior to use. 100 μg/mL His-14-3-3ζ protein in 20 mM HEPES pH 7.8, 150 mM NaCl and 1% DMSO was injected at 8 μL/min flow rate for 800 s contact time and immobilized until the instrument registered 2900–3500 RU (activation and protein immobalization spectrograms are provided as Supplementary Fig. 10). Drugs were dissolved in DMSO and were diluted with 20 mM HEPES pH 7.8, 150 mM NaCl (final DMSO concentration of 1% v/v) and were injected at a flow rate of 50 μL/min. Single-cycle kinetics were applied for KD evaluation and binding affinity using TraceDrawer v.1.8.1 (Ridgeview Instruments AB).

[7] = tested on: HT-29 and Caco-2 CRC cells; experiment: Cell death in CRC cells, statements covering both HT-29 and Caco-2 (screen at 20 µM, dose-response); type: cell-based, human
Protocol: Cells were plated at a density of 20,000 cells/well into 96-well plates (PerkinElmer; #6055302) and incubated overnight at 37 °C before the addition of the drugs. One hour prior to imaging, Hoechst 33342 (Invitrogen, #H3570) and propidium iodide (Invitrogen; #P3566) were added to the wells to achieve final concentrations of 50 ng/ml and 0.5 μg/ml, respectively. To measure apoptosis, AlexaFluor 488-conjugated Annexin V (ThermoFisher, Massachusetts, USA; #A13201) was also added at a dilution of 1:400 from the commercial stock. A high-content imaging system (PerkinElmer; Operetta CLS), was used to quantify cell death and apoptosis by calculating the number of propidium iodide-positive cells relative to Hoechst-positive cells, and the number of Annexin V-positive cells relative to Hoechst-positive cells, respectively. To assess caspase-dependent apoptosis, cells were pre-treated for 30 min with the caspase inhibitor Z-VAD-FMK (BD Biosciences, New Jersey, USA; #550377; 20 μM) or the negative control Z-FA-FMK (BD Biosciences; #550411; 20 μM) prior to the incubation of drugs.

[8] = NIH-3T3 cells, hits from the primary screen
[9] = NIH-3T3 expressing BRET sensor, 20 µM, 3 h
[10] = HT-29, 24 h, 20 µM, 24 h, read-out: Percentage of cell death % 24h HT-29
[11] = HT-29, 48 h, HT-29, 48h, 20 μM, read-out: Percentage of cell death % 48h, HT-29

Row | inhibition [1, 8] [%] | inhibition at 20 µM [1, 9] [%] | SMILES | Percentage of cell death % 24h CACO-2 [3] [%] | Percentage of cell death % 48h, Caco-2 [3] [%] | Percentage of cell death % 48h, NIH3T3 [4] [%] | cytotoxicity at 20 µM [2, 10] [%] | cytotoxicity at 20 µM [2, 11] [%] | cytotoxicity at 20 µM [4] [%] | %Cell death HT-29 ([2]; HT-29) [%] | %Cell death Caco-2 ([3]; time not given, text says 48 h) [%] | further results
1 | – | – | CCCCc1oc2ccc(NS(C)(=O)=O)cc2c1C(=O)c1ccc(OCCCN(CCCC)CCCC)cc1 [Dronedarone HCl] | 77.641 | 87.4152 | 84.99 | – | – | – | – | – | BRET reduction on NIH-3T3 [1, 8]: 49.6356; BRET reduction on NIH-3T3 [1, 9]: 49.6356; Percentage of cell death % 24h HT-29 ([2]; 20 µM, 24 h): 82.9811%; Percentage of cell death % 48h, HT-29 ([2]; HT-29, 48h, 20 μM): 91.5188%; Percentage of cell death % 24h NIH3t3 [4]: 85.6589%
2 | 40.2 | 40.2 | CC1=C(C(=O)OC(C)C)C(c2cccc([N+](=O)[O-])c2)C(C(=O)OC2CN(C(c3ccccc3)c3ccccc3)C2)=C(N)N1 (stereo not drawn) [Azelnidipine] | 9.563 | 13.6799 | 71.6636 | 66.4 | 91.6 | 75.6 | 91.6 | 13.7 | –
3 | 35.4 | 35.4 | Cc1ccc(Sc2ccccc2N2CCNCC2)c(C)c1 [Vortioxetine (Lu AA21004) HBr, Vortioxetine] | 33.0298 | 76.1709 | 71.7539 | 7.35 | 52.1 | 78.5 | 52.1 | 52.1 | –
4 | 39 | 39 | CC(C)(C)c1cc(C(C)(C)C)c(NC(=O)c2c[nH]c3ccccc3c2=O)cc1O [Ivacaftor (VX-770), Ivacaftor] | 14.0443 | 14.6425 | 12.0089 | 9.35 | 60.7 | 7.87 | – | – | –
5 | – | – | CCCCCCOC(=O)c1ccc(Nc2c([N+](=O)[O-])cc(C(=O)O)cc2[N+](=O)[O-])cc1 [BV01, 4-((4-((hexyloxy)carbonyl)phenyl)amino)-3,5-dinitrobenzoic acid] | – | – | – | – | – | – | – | – | Binding by ITC [5]: weak sign of binding; Bmax ([Signal (RU)]) ([6]; SPR curve at 0.005 mM ligand): 100.98 RU; Bmax ([Signal (RU)]) ([6]; SPR curve at 0.007 mM ligand): 147.7 RU; Bmax ([Signal (RU)]) ([6]; SPR curve at 0.03 mM ligand): 198.6 RU; Bmax ([Signal (RU)]) ([6]; SPR curve at 0.05 mM ligand): 257.38 RU; Bmax ([Signal (RU)]) ([6]; SPR curve at 0.07 mM ligand): 320.07 RU; kd ([6]; SPR dissociation rate, value repeated per curve): 0.0112 s⁻¹; BI ([Signal (RU)]) ([6]; SPR fit parameter, per curve): 0.1 RU; Kd ([6]; SPR, immobilized His-14-3-3ζ, single-cycle kinetics, 1% DMSO): 6.32 µM; kon ([6]; pH 7.8, read-out: ka): 1770 M⁻¹ s⁻¹
6 | – | – | Cl.Cl.Fc1ccc(C(c2ccc(F)cc2)N2CCN(C/C=C/c3ccccc3)CC2)cc1 [Flunarizine 2HCl] | 3.891 | 3.726 | 0.5715 | – | – | – | – | – | BRET reduction on NIH-3T3 [1, 8]: 36.4286; BRET reduction on NIH-3T3 [1, 9]: 36.4286; Percentage of cell death % 24h HT-29 ([2]; 20 µM, 24 h): 0.7908%; Percentage of cell death % 48h, HT-29 ([2]; HT-29, 48h, 20 μM): 1.34%; Percentage of cell death % 24h NIH3t3 [4]: 0.377%
7 | 41.6 | 41.6 | CC(C)(C)C#Cc1cc(N(C(=O)[C@H]2CC[C@H](C)CC2)[C@H]2CC[C@H](O)CC2)c(C(=O)O)s1 [VX-222 (VCH-222, Lomibuvir), Lomibuvir] | 4.951 | 36.3165 | 38.6762 | 3.68 | 78.5 | 5.5 | 78.5 | 36.3 | Lowest concentration that significantly induced cell death ([7]; dose-response 2.5-20 µM in HT-29 and Caco-2): 5 µM; Efficacy in the magnitude of cell death attained ([7]; dose-response in CRC cells): inferior to other candidates
8 | 34.7 | 34.7 | OC(CNCC(O)C1CCc2cc(F)ccc2O1)C1CCc2cc(F)ccc2O1 (stereo not drawn) [Nebivolol] | – | – | 64.5697 | 9.8 | 67.3 | 64.6 | 67.3 | – | %Cell death Caco-2 [3]: 45.0%
9 | 30.3 | 30.3 | O=C1Nc2ccc(Cl)cc2[C@@](C#CC2CC2)(C(F)(F)F)O1 [Efavirenz] | – | – | 7.6471 | 18.5 | 22 | 41.4 | 22.0 | – | %Cell death Caco-2 [3]: 20.5%

Row | SMILES | inhibition [1, 8] [%] | inhibition at 20 µM [1, 9] [%] | Percentage of cell death % 24h CACO-2 [3] [%] | Percentage of cell death % 48h, Caco-2 [3] [%] | Percentage of cell death % 48h, NIH3T3 [4] [%] | cytotoxicity at 20 µM [2, 10] [%] | cytotoxicity at 20 µM [2, 11] [%] | cytotoxicity at 20 µM [4] [%] | %Cell death HT-29 ([2]; HT-29) [%] | %Cell death Caco-2 ([3]; time not given, text says 48 h) [%] | further results
10 | Clc1ccc(C(Cn2ccnc2)OCc2c(Cl)cccc2Cl)c(Cl)c1 (stereo not drawn) [Isoconazole nitrate] | 45.1 | 45.1 | 5.943 | 5.407 | 4.218 | 1.88 | 3.88 | 8.57 | – | – | –

From publication PMC12603070, “A high-throughput screening approach to discover potential colorectal cancer chemotherapeutics: repurposing drugs to identify novel disruptors of 14-3-3 proteins” (Cell Death & Disease, 2025)
